Reference: patent US20080249144A1, “Preventive or Therapeutic Agent for Chronic Inflammatory Lung Disease” (KAKEN PHARMACEUITICAL CO., LTD., priority 2004, published 2008)

Experiments:
[1] = system: PPE-induced pulmonary emphysema model; assay: PPE-induced pulmonary emphysema model in mice; type: in vivo
Method: Eight-week old C57BL strain mice were anaesthetized with isoflurane. PPE (25 μg) was administered once to the lung through a cannula inserted into the trachea through the pharyngolarynx to induce a pulmonary damage. To a non-PPE administration group (normal group), saline was administered instead. In a preventive administration experiment (hereinafter referred to as a “preventive experiment”) of KP-496, drug effect was evaluated on inflammatory cells in BALF 2 days after PPE administration and by histopathological examination of the lung after 10 days. In a therapeutic administration experiment of KP-496 (hereinafter referred to as a “therapeutic experiment”), the drug effect was evaluated by histo-pathological examination of the lung and weight of the organs 14 days after PPE administration.
The medicament administration period was set from the PPE administration date to the day before autopsy in the preventive experiment and set from a predetermined day (KP-496A group: PPE administration date, KP-496B group: 3 days after PPE administration date, KP-496C group: 7 days after PPE administration date) to the day before autopsy in the therapeutic experiment. Inhalation administration of KP-496 was performed in the same manner as in Example 2. Furthermore, the normal group and the control group were allowed to spontaneously inhale saline, instead. A medicament for use in comparison, prednisolone, was orally administered in a dose of 5 mg/kg twice a day. A group consisted of 10 animals.
The animals were anaesthetized with pentobarbital and killed by exsanguination. Immediately after that, BAL of the right and left lungs was performed with 2 ml of saline. In the same manner as in Example 2, the total number of cells and the number of cells according to the cell type in the BALE were determined.
The lung was excised out from the animal killed by exsanguination in the same manner as in the above, the weight of the lung was measured. The lung was fixed in 10 vol % neutral buffered formalin solution. A pathological tissue sample was prepared in accordance in a general way. The degree of the damage of the lung tissue observed was evaluated by scoring in the same manner as in Example 2. Furthermore, the average of alveolar-space area of the entire lung tissue sample was computationally measured with image-processing software.
The average value and standard deviation of each group were calculated. Comparison between the normal group and the control group was performed by the Levene's test for equal variance and then, the t-test was performed depending on the results. To compare the control group and test substance administration groups, equal variance was first confirmed by the Levene's test and then multiple comparisons were performed in accordance with the Dunnett's test. Note that evaluation parameters with unequal variance and the damage score of the lung tissue were analyzed by nonparametric Mann-Whitney test. The significance level employed was […].

[2] = system: vanadium pentoxide-induced bronchitis model; assay: Vanadium pentoxide-induced bronchitis model in mice; type: in vivo; conditions: 7 days after vanadium pentoxide; compared with control
Method: Seven-week old C57BL strain male mice were used. The mouse was anaesthetized with isoflurane. Vanadium pentoxide (20 μg) was administered once to the lung through a cannula inserted into the trachea through the pharyngolarynx to induce pathology. To a non-vanadium pentoxide administration group (normal group), saline was administered, instead. KP-496 was administered by inhalation twice a day in the period from the vanadium pentoxide administration date to the day before autopsy, in the same manner as in Example 2. Furthermore, the normal group and the control group were allowed to spontaneously inhale saline in the same manner. A medicament for use in comparison, prednisolone, was orally administered at a dose of 5 mg/kg twice a day in the period from the vanadium pentoxide administration date to the day before autopsy. Note that the normal group consisted of 6 animals and the other group consisted of 10 animals. Each of the mice was anaesthetized with pentobarbital 7 days after vanadium pentoxide administration and killed by bloodletting from the abdominal aorta. The lung was excised out and fixed in 10 vol % neutral buffered formalin solution. […] The obtained value was divided by the circumferential length of the bronchial lumen (obtained in mucosal basal membrane) and the quotient was expressed as a mucus producing region area per millimeter of the bronchus. […]

COPD patients = conditions: according to the reports (Non-patent documents 7, 8 and patent document 1); cited from earlier work
human neutrophils = assay: LTB4-induced human neutrophil migration (48-well modified Boyden chamber); type: cell-based; conditions: test substance 10 μmol/L; 10 nmol/L LTB4
Method: Leukocytes were collected from human peripheral blood samples (20 mL of venous blood was taken by a doctor) were obtained from 4 healthy adults (male). They received sufficient information on the purpose of the experiment and gave informed consent in advance. An equivalent amount of 3% dextran (M.W. 208000) saline solution was added to the heparinized blood thus obtained and the mixture was kept to stand for one hour. Thereafter, the supernatant was collected and centrifuged at 150 g for 5 minutes at 4° C. The supernatant was discarded and the pellet was repeatedly twice haemolysed. To explain in detail, 4 mL of an ice-cooled 0.2% NaCl solution was added, quickly suspended and allowed to stand for 20 to 30 seconds. Thereafter, 4 mL of an ice-cooled 1.6% NaCl solution was added to the suspension solution to return the solution to the isotonic condition. After centrifugation was performed at 150 g for 5 minutes at 4° C., the same treatment was repeated. The cell pellet obtained was finally suspended in a buffer (Hank's solution containing 0.1% FBS) and subjected to an experiment.
This experiment was performed using a 48-well modified Boyden chamber (Neuro Probe). To explain in detail, the wells of the bottom plate of the chamber were filled with 25 μl of vehicle solution containing 10 nmol/L of LTB4. A polycarbonate filter (PVP-free, pore size: 3 μm) was placed on the bottom plate. The top plate of the chamber was mounted and each well of the upper plate was filled with 45 μL of a leukocyte suspension solution (1.0×10^6 cells/mL) prepared with the buffer. Immediately after that, 5 μL of a test substance (10 fold concentration of a final concentration) was added to the wells. […] The numbers of cells were counted in 4 visual fields (×400) per well and the average of them was regarded as the number of migrated cells. Each test substance was evaluated using 3 wells. The average value of these wells was calculated and regarded as the value of each substance.
The average and standard deviation of each group were calculated. […]

| Structure (SMILES) | total number of cells in BALF ([1]; 2 days after PPE administration, preventive experiment) | number of eosinophils in BALF ([1]; 2 days after PPE, compared to control group) | weights of the organs (liver, spleen and thymus gland) ([1]; compared to control group) | increase in lung weight ([1]; preventive experiment, 10 days after PPE) | damage score of the lung ([1]; preventive experiment, 10 days after PPE, compared with control group) | body weight change ([1]; preventive experiment, up to 10 days after PPE, compared to control group) | increase of the average of the alveolar-space area ([1]; preventive experiment, compared to control) | increase of PAS positive area (mucus producing region of intrapulmonary bronchial epithelium) [2] | respiratory function of COPD patients (COPD patients) | suppression of LTB4-induced neutrophil migration (human neutrophils) |
| --- | --- | --- | --- | --- | --- | --- | --- | --- | --- | --- |
| C[C@]12C=CC(=O)C=C1CC[C@@H]1[C@@H]2[C@@H](O)C[C@@]2(C)[C@H]1CC[C@]2(O)C(=O)CO [prednisolone, reference compound] | 4.3±2.1 ×10^5 cells | significantly decreased | significantly decreased | significantly suppressed | significantly decreased | significant reduction compared to the control group | significantly suppressed | significantly suppressed |  |  |
| CC1=C(C)C(=O)C(C(CCCCCC(=O)O)c2ccccc2)=C(C)C1=O (centres unmarked) [seratorodast, reference compound] |  |  |  |  |  |  |  |  | improves the respiratory function | did not suppress the migration at all |
| COc1cc(C(=O)NS(=O)(=O)c2ccccc2C)ccc1Cc1cn(C)c2ccc(NC(=O)OC3CCCC3)cc12 [zafirlukast] |  |  |  |  |  |  |  |  | improves the respiratory function |  |
